Laboratory results from patent US5110800A, “Derivatives of erythromycylamine” (Eli Lilly and Company, priority 1989, dated 1992).
≈ marks a conversion by molar mass, not a printed value. Read-outs that look alike come from different tables or passages of the source.

What was measured:
Test in all cases: MIC, standard agar-dilution assay
Type in all cases: cell-based
[1] = test system: Staphylococcus epidermidis 222; conditions: Staphylococcus epidermidis, 222, read-out: minimal inhibitory concentration (MIC)
[2] = test system: Haemophilus influenzae 76
[3] = test system: Streptococcus sp. group D 2041; conditions: Streptococcus, read-out: minimal inhibitory concentration (MIC)
[4] = test system: Staphylococcus epidermidis 270
Excerpt: (§1) In addition to excellent in vitro activity against erythromycin-sensitive bacteria, several members of this new series have shown in vitro activity against erythromycin-resistant strains. These include strains which are inducibly-resistant to erythromycin (S. aureus V41 and X400 and S. epidermidis EPI1) and even strains which are constitutively-resistant (S. epidermidis 270).

[5] = test system: Staphylococcus aureus X1.1; conditions: Staphylococcus aureus, X1.1, read-out: minimal inhibitory concentration (MIC)
[6] = test system: Streptococcus pyogenes C203; conditions: Streptococcus pyogenes
[7] = test system: Streptococcus sp. group D X66; conditions: Streptococcus, read-out: minimal inhibitory concentration (MIC)
[8] = test system: Staphylococcus aureus V41; conditions: Staphylococcus aureus
Excerpt: as §1

[9] = test system: Staphylococcus aureus X400; conditions: Staphylococcus aureus
Excerpt: as §1

[10] = test system: Escherichia coli EC14; conditions: Escherichia coli
[11] = test system: Klebsiella pneumoniae X68; conditions: Klebsiella pneumoniae
[12] = test system: Staphylococcus aureus S13E; conditions: Staphylococcus aureus, S13E, read-out: minimal inhibitory concentration (MIC)
[13] = test system: Streptococcus pneumoniae Park I; conditions: Streptococcus pneumoniae, read-out: minimal inhibitory concentration (MIC)
[14] = test system: Haemophilus influenzae C.L.; conditions: Haemophilus influenzae, read-out: minimal inhibitory concentration (MIC)
[15] = Haemophilus influenzae, 76, read-out: minimal inhibitory concentration (MIC)
[16] = Staphylococcus epidermidis, 270, Table IV, constitutively erythromycin-resistant, read-out: minimal inhibitory concentration (MIC)
[17] = C203, read-out: minimal inhibitory concentration (MIC)
[18] = Haemophilus influenzae, 76, Table IV, ampicillin-resistant strain, read-out: minimal inhibitory concentration (MIC)
[19] = V41, Table IV, penicillin-resistant strain, inducibly erythromycin-resistant, read-out: minimal inhibitory concentration (MIC)
[20] = X400, Table IV, methicillin-resistant strain, inducibly erythromycin-resistant, read-out: minimal inhibitory concentration (MIC)
[21] = EC14, Table IV, agar dilution, read-out: minimal inhibitory concentration (MIC)
[22] = X68, Table IV, agar dilution, read-out: minimal inhibitory concentration (MIC)
[23] = Table IV, ampicillin-sensitive strain
[24] = EC14, read-out: minimal inhibitory concentration (MIC)
[25] = X68, read-out: minimal inhibitory concentration (MIC)

Row | SMILES | MIC [1] [µg/mL] | MIC [2, 15] [µg/mL] | MIC [3] [µg/mL] | MIC [4, 16] [µg/mL] | MIC [5] [µg/mL] | MIC [6, 17] [µg/mL] | MIC [7] [µg/mL] | MIC [2, 18] [µg/mL] | MIC [8, 19] [µg/mL] | MIC [9, 20] [µg/mL] | MIC [10, 21] [µg/mL] | MIC [11, 22] [µg/mL] | MIC [12] [µg/mL] | MIC [10, 24] [µg/mL] | MIC [14] [µg/mL] | MIC [13] [µg/mL] | further results
1 | CC[C@H]1OC(=O)[C@H](C)[C@@H](O[C@H]2C[C@@](C)(OC)[C@@H](O)[C@H](C)O2)[C@H](C)[C@@H](O[C@@H]2O[C@H](C)C[C@H](N(C)C)[C@H]2O)[C@](C)(O)C[C@@H](C)[C@H](NC)[C@H](C)[C@@H](O)[C@]1(C)O [Compound 1, 9-Deoxo-9-(methylamino)erythromycin] | 0.25 (≈ 0.334 µM) | 1 (≈ 1.34 µM) | 1 (≈ 1.34 µM) | > 128 | 1 (≈ 1.34 µM) | 0.06 (≈ 0.0801 µM) | 0.125 (≈ 0.167 µM) |  |  |  |  |  |  |  |  |  | 
2 | CCCCCCCCCCN[C@@H]1[C@H](C)[C@@H](O)[C@@H](C)[C@@H](CC)OC(=O)[C@H](C)[C@@H](O[C@H]2C[C@@](C)(OC)[C@@H](O)[C@H](C)O2)[C@H](C)[C@@H](O[C@@H]2O[C@H](C)C[C@H](N(C)C)[C@H]2O)[C@](C)(O)C[C@H]1C [Compound 41] | 0.5 (≈ 0.582 µM) |  |  | 8 (≈ 9.31 µM) | 2 (≈ 2.33 µM) |  | 0.5 (≈ 0.582 µM) | 4 (≈ 4.66 µM) | 4 (≈ 4.66 µM) | 4 (≈ 4.66 µM) | > 128 | > 128 | 1 (≈ 1.16 µM) |  |  |  | MIC ([3]; Table IV, agar dilution): 4 µg/mL (≈ 4.66 µM); MIC ([6]; C203, Table IV, agar dilution, read-out: minimal inhibitory concentration (MIC)): 0.03 µg/mL (≈ 0.0349 µM); MIC ([13]; Table IV, agar dilution): 0.03 µg/mL (≈ 0.0349 µM); MIC [14, 23]: 8 µg/mL (≈ 9.31 µM)
3 | CCOC(=O)C1CC1CN[C@@H]1[C@H](C)[C@@H](O)[C@](C)(O)[C@@H](CC)OC(=O)[C@H](C)[C@@H](O[C@H]2C[C@@](C)(OC)[C@@H](O)[C@H](C)O2)[C@H](C)[C@@H](O[C@@H]2O[C@H](C)C[C@H](N(C)C)[C@H]2O)[C@](C)(O)C[C@H]1C (stereo partly drawn) [Compound 27, 9-Deoxo-9-[[[2-(ethoxycarbonyl)cyclopropyl]methyl]amino]erythromycin] | 0.5 (≈ 0.581 µM) |  | 2 (≈ 2.32 µM) | > 128 | 1 (≈ 1.16 µM) | 0.5 (≈ 0.581 µM) | 0.125 (≈ 0.145 µM) | 2 (≈ 2.32 µM) | > 128 | > 128 |  |  | 1 (≈ 1.16 µM) | 128 (≈ 149 µM) | 2 (≈ 2.32 µM) |  | MIC [11, 25]: 128 µg/mL (≈ 149 µM)
4 | CCCCCN[C@@H]1[C@H](C)[C@@H](O)[C@](C)(O)[C@@H](CC)OC(=O)[C@H](C)[C@@H](O[C@H]2C[C@@](C)(OC)[C@@H](O)[C@H](C)O2)[C@H](C)[C@@H](O[C@@H]2O[C@H](C)C[C@H](N(C)C)[C@H]2O)[C@](C)(O)C[C@H]1C [Compound 5, 9-Deoxo-9-(n-pentylamino)erythromycin] |  |  |  | > 128 |  | 0.06 (≈ 0.0745 µM) | 0.125 (≈ 0.155 µM) |  | > 128 | > 128 |  |  |  | 128 (≈ 159 µM) |  | 0.015 (≈ 0.0186 µM) | MIC [11, 25]: 128 µg/mL (≈ 159 µM)
5 | CC[C@H]1OC(=O)[C@H](C)[C@@H](O[C@H]2C[C@@](C)(OC)[C@@H](O)[C@H](C)O2)[C@H](C)[C@@H](O[C@@H]2O[C@H](C)C[C@H](N(C)C)[C@H]2O)[C@](C)(O)C[C@@H](C)[C@H](NCCCSC)[C@H](C)[C@@H](O)[C@]1(C)O [Compound 26, 9-Deoxo-9-[[3-(methylthio)propyl]amino]erythromycin] |  |  |  | > 128 |  | 0.015 (≈ 0.0182 µM) | 0.25 (≈ 0.304 µM) |  | > 128 | > 128 |  | > 128 |  | 128 (≈ 156 µM) |  | 0.015 (≈ 0.0182 µM) | 
6 | CC[C@H]1OC(=O)[C@H](C)[C@@H](O[C@H]2C[C@@](C)(OC)[C@@H](O)[C@H](C)O2)[C@H](C)[C@@H](O[C@@H]2O[C@H](C)C[C@H](N(C)C)[C@H]2O)[C@](C)(O)C[C@@H](C)[C@H](NCC2CCCCCCC2)[C@H](C)[C@@H](O)[C@]1(C)O [Compound 16, 9-Deoxo-9-[(cyclooctylmethyl)amino]erythromycin] | 0.25 (≈ 0.291 µM) | 1 (≈ 1.16 µM) | 1 (≈ 1.16 µM) | > 128 | 0.5 (≈ 0.582 µM) |  |  |  |  |  |  | > 128 |  |  |  |  | 
7 | CCCCCCCCCCN[C@@H]1[C@H](C)[C@@H](O)[C@](C)(O)[C@@H](CC)OC(=O)[C@H](C)[C@@H](O[C@H]2C[C@@](C)(OC)[C@@H](O)[C@H](C)O2)[C@H](C)[C@@H](O[C@@H]2O[C@H](C)C[C@H](N(C)C)[C@H]2O)[C@](C)(O)C[C@H]1C [Compound 9, 9-Deoxo-9-(n-decylamino)erythromycin] | 1 (≈ 1.14 µM) | 1 (≈ 1.14 µM) | 2 (≈ 2.29 µM) |  | 1 (≈ 1.14 µM) | 0.015 (≈ 0.0171 µM) | 0.25 (≈ 0.286 µM) |  |  |  | > 128 | > 128 |  |  | 2 (≈ 2.29 µM) | 0.015 (≈ 0.0171 µM) | 
8 | CCCCCCCCCCCCN[C@@H]1[C@H](C)[C@@H](O)[C@](C)(O)[C@@H](CC)OC(=O)[C@H](C)[C@@H](O[C@H]2C[C@@](C)(OC)[C@@H](O)[C@H](C)O2)[C@H](C)[C@@H](O[C@@H]2O[C@H](C)C[C@H](N(C)C)[C@H]2O)[C@](C)(O)C[C@H]1C [Compound 10, 9-Deoxo-9-(n-dodecylamino)erythromycin] |  |  |  |  |  |  | 1 (≈ 1.11 µM) |  |  |  | > 128 | > 128 |  |  |  | 0.06 (≈ 0.0664 µM) | 
9 | C=CCCCCCCCCCN[C@@H]1[C@H](C)[C@@H](O)[C@](C)(O)[C@@H](CC)OC(=O)[C@H](C)[C@@H](O[C@H]2C[C@@](C)(OC)[C@@H](O)[C@H](C)O2)[C@H](C)[C@@H](O[C@@H]2O[C@H](C)C[C@H](N(C)C)[C@H]2O)[C@](C)(O)C[C@H]1C [Compound 28, 9-Deoxo-9-[(undec-10-enyl)amino]erythromycin] | 1 (≈ 1.13 µM) |  | 2 (≈ 2.25 µM) | 32 (≈ 36.1 µM) | 2 (≈ 2.25 µM) | 1 (≈ 1.13 µM) | 0.125 (≈ 0.141 µM) | 2 (≈ 2.25 µM) | 8 (≈ 9.02 µM) | 8 (≈ 9.02 µM) | > 128 | > 128 | 2 (≈ 2.25 µM) |  | 2 (≈ 2.25 µM) |  | 
10 | CC[C@H]1OC(=O)[C@H](C)[C@@H](O[C@H]2C[C@@](C)(OC)[C@@H](O)[C@H](C)O2)[C@H](C)[C@@H](O[C@@H]2O[C@H](C)C[C@H](N(C)C)[C@H]2O)[C@](C)(O)C[C@@H](C)[C@H](NCCC2=C(C)CCCC2(C)C)[C@H](C)[C@@H](O)[C@]1(C)O [Compound 30, 9-Deoxo-9-[[2-(2,6,6-trimethyl-1-cyclohexen-1-yl)ethyl]amino]erythromycin] | 1 (≈ 1.13 µM) |  | 2 (≈ 2.26 µM) | 64 (≈ 72.3 µM) | 1 (≈ 1.13 µM) | 0.5 (≈ 0.565 µM) | 0.125 (≈ 0.141 µM) | 4 (≈ 4.52 µM) | 16 (≈ 18.1 µM) | 32 (≈ 36.1 µM) | > 128 | > 128 | 2 (≈ 2.26 µM) |  |  |  | MIC [14, 23]: 4 µg/mL (≈ 4.52 µM)
11 | CCCCN[C@@H]1[C@H](C)[C@@H](O)[C@](C)(O)[C@@H](CC)OC(=O)[C@H](C)[C@@H](O[C@H]2C[C@@](C)(OC)[C@@H](O)[C@H](C)O2)[C@H](C)[C@@H](O[C@@H]2O[C@H](C)C[C@H](N(C)C)[C@H]2O)[C@](C)(O)C[C@H]1C [Compound 4, 9-Deoxo-9-(n-butylamino)erythromycin] | 0.25 (≈ 0.316 µM) | 1 (≈ 1.26 µM) | 1 (≈ 1.26 µM) | > 128 | 0.25 (≈ 0.316 µM) | 0.06 (≈ 0.0758 µM) | 0.125 (≈ 0.158 µM) |  | > 128 | > 128 |  |  |  |  | 1 (≈ 1.26 µM) | 0.015 (≈ 0.019 µM) | 
12 | CC[C@H]1OC(=O)[C@H](C)[C@@H](O[C@H]2C[C@@](C)(OC)[C@@H](O)[C@H](C)O2)[C@H](C)[C@@H](O[C@@H]2O[C@H](C)C[C@H](N(C)C)[C@H]2O)[C@](C)(O)C[C@@H](C)[C@H](NCCCc2ccccc2)[C@H](C)[C@@H](O)[C@]1(C)O [Compound 17, (9S)-9-Deoxo-9-[(3-phenylpropyl)amino]erythromycin] | 0.5 (≈ 0.586 µM) |  | 2 (≈ 2.34 µM) | > 128 | 1 (≈ 1.17 µM) | 0.015 (≈ 0.0176 µM) | 0.06 (≈ 0.0703 µM) |  | > 128 | > 128 |  | > 128 |  | 128 (≈ 150 µM) | 2 (≈ 2.34 µM) | 0.015 (≈ 0.0176 µM) | 
13 | CC[C@H]1OC(=O)[C@H](C)[C@@H](O[C@H]2C[C@@](C)(OC)[C@@H](O)[C@H](C)O2)[C@H](C)[C@@H](O[C@@H]2O[C@H](C)C[C@H](N(C)C)[C@H]2O)[C@](C)(O)C[C@@H](C)[C@H](NCCCC#N)[C@H](C)[C@@H](O)[C@]1(C)O [Compound 29, 9-Deoxo-9-[(3-cyanopropyl)amino]erythromycin] | 1 (≈ 1.25 µM) |  |  |  | 1 (≈ 1.25 µM) | 1 (≈ 1.25 µM) | 0.125 (≈ 0.156 µM) | 4 (≈ 4.99 µM) |  |  | 64 (≈ 79.8 µM) |  | 128 (≈ 160 µM) |  | 2 (≈ 2.49 µM) |  | MIC ([3]; Table IV, agar dilution): 4 µg/mL (≈ 4.99 µM); MIC ([8]; V41, read-out: minimal inhibitory concentration (MIC)): > 128 µg/mL; MIC ([4]; Staphylococcus epidermidis, 270, read-out: minimal inhibitory concentration (MIC)): > 128 µg/mL; MIC ([9]; X400, read-out: minimal inhibitory concentration (MIC)): > 128 µg/mL; MIC [11, 25]: 128 µg/mL (≈ 160 µM)
